We go through 32 compounds from ChEMBL document CHEMBL3396949, “Synthesis, biological evaluation and molecular docking study of novel piperidine and piperazine derivatives as multi-targeted agents to treat Alzheimer's disease” (Bioorg Med Chem, 2015).

Data set [1] in a line: Antioxidant activity assessed as trolox equivalent of AAPH radical scavenging activity at 1 to 10 uM preincubated for 15 mins followed by AAPH challenge measured every min for 80 mins by ORAC-FL assay.
For data set [2], the target named is Amyloid-beta precursor protein (Homo sapiens) (UniProt P05067). In words: Inhibition of self-mediated amyloid beta (1 to 42) (unknown origin) aggregation at 25 uM after 48 hrs by thioflavin T fluorescence assay relative to control.
For the next data set, the target named is Acetylcholinesterase (Electrophorus electricus, UniProt O42275). In words: Inhibition of electric eel AChE using acetylthiocholine iodide as substrate incubated for 5 mins by Ellman's method. On the technique in general: In Ellman's method for cholinesterases, released thiocholine reacts with DTNB.
The target of the next data set is Cholinesterase (Equus caballus, UniProt P81908). Briefly: Inhibition of equine serum BChE using butyrylthiocholine iodide as substrate incubated for 5 mins by Ellman's method.
Data set [3] can be described thus: Selectivity ratio of IC50 for equine serum BChE to IC50 for electric eel AChE.
In data set [4] the target is Amyloid-beta precursor protein (Homo sapiens) (UniProt P05067). In words: Ratio of curcumin to compound for self-mediated amyloid beta (1 to 42) (unknown origin) aggregation at 25 uM after 48 hrs by thioflavin T fluorescence assay relative to control.
For data set [5], the target named is Acetylcholinesterase (Electrophorus electricus) (UniProt O42275). In words: Ratio of donepezil IC50 to compound IC50 for electric eel AChE using acetylthiocholine iodide as substrate incubated for 5 mins by Ellman's method.
Acetylcholinesterase (Electrophorus electricus), sequence (O42275 24-633 limits assumed): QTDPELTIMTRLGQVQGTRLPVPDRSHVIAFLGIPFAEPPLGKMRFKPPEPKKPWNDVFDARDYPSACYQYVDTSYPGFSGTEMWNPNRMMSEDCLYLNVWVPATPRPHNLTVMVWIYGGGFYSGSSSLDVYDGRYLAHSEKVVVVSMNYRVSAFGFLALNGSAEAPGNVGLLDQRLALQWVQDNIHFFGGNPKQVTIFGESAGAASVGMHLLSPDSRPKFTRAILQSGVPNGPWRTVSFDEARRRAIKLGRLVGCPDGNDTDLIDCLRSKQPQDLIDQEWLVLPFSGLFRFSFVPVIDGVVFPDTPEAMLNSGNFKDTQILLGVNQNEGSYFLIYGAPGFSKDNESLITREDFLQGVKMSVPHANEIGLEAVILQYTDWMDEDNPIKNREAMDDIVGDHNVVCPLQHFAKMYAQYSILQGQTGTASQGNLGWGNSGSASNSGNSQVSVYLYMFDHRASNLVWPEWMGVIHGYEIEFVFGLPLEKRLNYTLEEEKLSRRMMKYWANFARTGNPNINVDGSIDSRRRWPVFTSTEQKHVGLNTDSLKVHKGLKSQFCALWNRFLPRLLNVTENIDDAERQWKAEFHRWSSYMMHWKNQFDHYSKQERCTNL

Acetylcholinesterase, sequence (O42275 whole entry): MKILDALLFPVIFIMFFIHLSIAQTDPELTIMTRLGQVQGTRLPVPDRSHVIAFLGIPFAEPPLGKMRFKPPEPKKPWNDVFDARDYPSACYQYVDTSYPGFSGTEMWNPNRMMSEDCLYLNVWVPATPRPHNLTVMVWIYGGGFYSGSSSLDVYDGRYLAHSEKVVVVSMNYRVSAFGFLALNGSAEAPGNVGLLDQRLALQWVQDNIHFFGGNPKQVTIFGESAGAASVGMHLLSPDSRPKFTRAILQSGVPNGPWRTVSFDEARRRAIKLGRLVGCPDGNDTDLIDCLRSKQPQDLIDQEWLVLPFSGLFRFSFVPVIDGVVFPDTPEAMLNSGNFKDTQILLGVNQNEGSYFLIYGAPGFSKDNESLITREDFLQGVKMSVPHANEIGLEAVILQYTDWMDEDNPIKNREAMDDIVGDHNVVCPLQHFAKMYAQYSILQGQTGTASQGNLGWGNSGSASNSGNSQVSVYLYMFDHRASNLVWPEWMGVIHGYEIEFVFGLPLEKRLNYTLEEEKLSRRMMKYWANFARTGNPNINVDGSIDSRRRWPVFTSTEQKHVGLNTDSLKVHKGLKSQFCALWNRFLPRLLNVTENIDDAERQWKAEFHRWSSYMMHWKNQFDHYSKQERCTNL
Cholinesterase, sequence (P81908 whole entry): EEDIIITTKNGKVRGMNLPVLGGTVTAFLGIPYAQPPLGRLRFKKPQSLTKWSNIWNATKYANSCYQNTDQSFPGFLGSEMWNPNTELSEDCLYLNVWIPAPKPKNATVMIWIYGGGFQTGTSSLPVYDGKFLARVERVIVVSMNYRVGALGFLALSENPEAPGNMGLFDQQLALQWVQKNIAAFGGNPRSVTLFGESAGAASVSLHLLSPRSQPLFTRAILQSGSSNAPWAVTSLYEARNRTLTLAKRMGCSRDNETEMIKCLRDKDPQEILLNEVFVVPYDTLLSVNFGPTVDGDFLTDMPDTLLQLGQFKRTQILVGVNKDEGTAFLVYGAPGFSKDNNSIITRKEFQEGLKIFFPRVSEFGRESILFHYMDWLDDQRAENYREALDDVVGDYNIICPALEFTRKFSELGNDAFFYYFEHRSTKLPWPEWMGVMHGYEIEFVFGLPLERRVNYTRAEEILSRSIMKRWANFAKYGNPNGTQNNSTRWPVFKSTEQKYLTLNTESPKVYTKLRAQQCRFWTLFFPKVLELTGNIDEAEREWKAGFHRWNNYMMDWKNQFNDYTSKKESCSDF
Amyloid-beta precursor protein (Homo sapiens), sequence (P05067 whole entry): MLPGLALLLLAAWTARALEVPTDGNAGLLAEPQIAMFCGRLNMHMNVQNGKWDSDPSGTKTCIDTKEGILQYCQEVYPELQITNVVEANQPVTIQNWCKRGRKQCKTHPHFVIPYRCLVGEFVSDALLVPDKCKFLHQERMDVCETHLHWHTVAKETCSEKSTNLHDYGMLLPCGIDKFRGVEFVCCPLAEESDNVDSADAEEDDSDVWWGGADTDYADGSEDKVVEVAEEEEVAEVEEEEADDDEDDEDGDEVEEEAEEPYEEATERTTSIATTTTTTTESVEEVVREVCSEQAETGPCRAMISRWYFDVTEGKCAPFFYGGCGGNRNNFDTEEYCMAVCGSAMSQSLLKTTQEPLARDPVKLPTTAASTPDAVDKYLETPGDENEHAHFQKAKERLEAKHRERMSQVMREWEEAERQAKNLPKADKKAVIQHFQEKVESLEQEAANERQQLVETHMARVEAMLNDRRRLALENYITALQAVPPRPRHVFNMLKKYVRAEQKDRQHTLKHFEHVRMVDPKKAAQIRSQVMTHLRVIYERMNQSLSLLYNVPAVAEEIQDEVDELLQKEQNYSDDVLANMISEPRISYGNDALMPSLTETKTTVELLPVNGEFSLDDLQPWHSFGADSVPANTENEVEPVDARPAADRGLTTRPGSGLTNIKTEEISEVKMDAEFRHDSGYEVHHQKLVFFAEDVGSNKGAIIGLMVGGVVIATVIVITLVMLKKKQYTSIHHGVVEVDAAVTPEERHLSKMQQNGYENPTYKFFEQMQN

Turning to `COc1cc(CNCCN2CCN(C(c3ccccc3)c3ccccc3)CC2)ccc1O`, the Activity in data set [1] is recorded as 2.31 equiv. Moreover, the inhibition (usually the drop in the measured response relative to a control, in per cent) in data set [2] is 43.5%.
Take `COc1cc(CNCCCN2CCN(Cc3ccccc3)CC2)ccc1O`: the IC50 (as a rule, the point on the concentration scale where inhibition reaches its midpoint) was 13.5 nM against Acetylcholinesterase and 18.8 nM on Cholinesterase. Further, the Ratio IC50 in data set [3] worked out at 1.38. Further, the Activity in data set [1] was determined as 1.99 equiv. This compound yielded an inhibition in data set [2] of 67.2%.
For `c1ccc(CN2CCN(CCCCNCc3cccnc3)CC2)cc1` the same measures were 134 nM, 104 nM, 0.78, 0.64 equiv and 69.3%.
Consider `COc1cc(CNCCCN2CCN(C(c3ccccc3)c3ccccc3)CC2)ccc1O`, for which, in data set [1], the Activity is 2.68 equiv. In addition, the inhibition in data set [2] was determined as 54.2%.
Regarding `COc1ccc(CNCCN2CCN(Cc3ccccc3)CC2)cc1OC`, the concentration for half-maximal inhibition (IC50) was 682 nM against Acetylcholinesterase and 274 nM on Cholinesterase. Besides, the Ratio IC50 in data set [3] worked out at 0.4. In data set [1], the Activity is 0.95 equiv. Also, the inhibition in data set [2] turned out to be 80.7%. In addition, in data set [4], the Ratio came out at 1.71.
Turning to `COc1cc(CNCCN2CCC(Cc3ccccc3)CC2)cc(OC)c1OC`, the IC50 was determined as 35.8 nM on Acetylcholinesterase and 53.4 nM at Cholinesterase. Further, the Ratio IC50 in data set [3] is 1.48. Besides, the Activity in data set [1] is on record as 1.38 equiv. Further, the inhibition in data set [2] was determined as 75%.
For the compound `COc1ccc(CNCCCN2CCN(Cc3ccccc3)CC2)cc1OC`, the IC50 is 112 nM on Acetylcholinesterase and 331 nM against Cholinesterase. In addition, in data set [3], the Ratio IC50 stood at 2.94. Moreover, the Activity in data set [1] was determined as 1.4 equiv. This compound also returned an inhibition in data set [2] of 79.7%. Also, the Ratio in data set [4] came to 1.71.
With `COc1ccc(CNCCCN2CCC(Cc3ccccc3)CC2)cc1OC`, the IC50 at Acetylcholinesterase turned out to be 75.3 nM; against Cholinesterase, 190 nM. The Ratio IC50 in data set [3] came to 2.52. Moreover, the Activity in data set [1] was 1.22 equiv. The inhibition in data set [2] is 84.4%. Moreover, the Ratio in data set [4] came out at 1.51.
For `COc1ccc(CNCCN2CCN(C(c3ccccc3)c3ccccc3)CC2)cc1OC`, the Activity in data set [1] came to 1.77 equiv. The compound further registered an inhibition in data set [2] of 67.6%.
As to `COc1ccc(CNCCCCN2CCC(Cc3ccccc3)CC2)cc1OC`, the results for the IC50 against Acetylcholinesterase and against Cholinesterase were 202 nM and 49.1 nM, respectively. Further, the Ratio IC50 in data set [3] was found to be 0.24. Further, the Activity in data set [1] came out at 1.06 equiv. Further, in data set [2], the inhibition turned out to be 80.7%. In data set [4], the Ratio is 1.51.
Consider `COc1ccc(CNCCCCN2CCN(C(c3ccccc3)c3ccccc3)CC2)cc1OC`, for which the Activity in data set [1] is 1.35 equiv. Moreover, the inhibition in data set [2] stood at 57.8%.
`COc1cc(CNCCCCN2CCN(Cc3ccccc3)CC2)cc(OC)c1OC`: the IC50 against Acetylcholinesterase is 138 nM; against Cholinesterase it was 32.7 nM. Further, in data set [3], the Ratio IC50 is 0.23. Also, in data set [1], the Activity is on record as 1.24 equiv. This compound yielded an inhibition in data set [2] of 80.4%. Further, the Ratio in data set [4] was determined as 1.71.
On to `COc1cc(CNCCN2CCC(Cc3ccccc3)CC2)ccc1O`, for which the figures for the IC50 against Acetylcholinesterase and on Cholinesterase were 38.3 nM and 4.2 nM, respectively. In addition, the Ratio IC50 in data set [3] is 0.1. In data set [1], the Activity was 4.04 equiv. The compound also returned an inhibition in data set [2] of 84.4%. The Ratio in data set [4] was determined as 1.51.
Regarding `c1ccc(CC2CCN(CCCCNCc3cccnc3)CC2)cc1`, the IC50 against Acetylcholinesterase was 7.72 nM; at Cholinesterase, 34 nM. Also, the Ratio IC50 is 4.4 in data set [3] and 6 in data set [5]. In data set [1], the Activity was determined as 1.59 equiv. Also, the inhibition in data set [2] was 78.6%. Also, the Ratio in data set [4] was 1.51.
Regarding `c1ccc(CC2CCN(CCCNCc3cccnc3)CC2)cc1`, the 50% inhibitory concentration (IC50) against Acetylcholinesterase was found to be 2.13 nM; against Cholinesterase, 81.7 nM. Also, the figures for the Ratio IC50 in data set [3] and in data set [5] were 38.4 and 22, respectively. In addition, the Activity in data set [1] is 1.18 equiv. This compound also displayed an inhibition in data set [2] of 88.8%. Also, the Ratio in data set [4] came to 1.51.
As to `COc1cc(CNCCCCN2CCN(Cc3ccccc3)CC2)ccc1O`, the IC50 against Acetylcholinesterase was 136 nM; at Cholinesterase it was 13.9 nM. Moreover, in data set [3], the Ratio IC50 was found to be 0.1. Further, the Activity in data set [1] is reported as 1.64 equiv. This compound had an inhibition in data set [2] of 72.4%.
Consider `COc1cc(CNCCCN2CCN(C(c3ccccc3)c3ccccc3)CC2)cc(OC)c1OC`, for which the Activity in data set [1] worked out at 2.47 equiv. In addition, the inhibition in data set [2] came to 68.2%.
Turning to `COc1cc(CNCCCCN2CCC(Cc3ccccc3)CC2)ccc1O`, the results for the IC50 at Acetylcholinesterase and against Cholinesterase were 11.5 nM and 3.87 nM, respectively. Besides, the Ratio IC50 in data set [3] stood at 0.33. The Activity in data set [1] was determined as 4.45 equiv. Further, the inhibition in data set [2] amounted to 71.3%.
Take `c1ccc(CC2CCN(CCNCc3cccnc3)CC2)cc1`: the IC50 against Acetylcholinesterase was determined as 32.8 nM; at Cholinesterase it was 101 nM. Also, in data set [3], the Ratio IC50 came out at 3.07. Moreover, in data set [1], the Activity is given as 1.32 equiv. In data set [2], this compound returned an inhibition of 84.4%. For the same compound, in data set [4], the Ratio is 1.51.
`COc1cc(CNCCN2CCN(Cc3ccccc3)CC2)ccc1O`: the IC50 was determined as 181 nM against Acetylcholinesterase and 18.3 nM against Cholinesterase. In addition, the Ratio IC50 in data set [3] came to 0.1. Moreover, in data set [1], the Activity amounted to 1.28 equiv. The same compound gave an inhibition in data set [2] of 71.9%.
With `COc1cc(CNCCCCN2CCN(C(c3ccccc3)c3ccccc3)CC2)cc(OC)c1OC`, the Activity in data set [1] is 1.63 equiv. In data set [2], this compound gave an inhibition of 57.3%.
`COc1ccc(CNCCCN2CCN(C(c3ccccc3)c3ccccc3)CC2)cc1OC`: the Activity in data set [1] was 2.21 equiv. The compound also had an inhibition in data set [2] of 65.6%.
In the case of `c1ccc(CN2CCN(CCCNCc3cccnc3)CC2)cc1`, the IC50 on Acetylcholinesterase stood at 23.1 nM; against Cholinesterase it was 209 nM. Moreover, the Ratio IC50 in data set [3] came to 9.03. In addition, the Activity in data set [1] worked out at 0.65 equiv. In data set [2], this compound gave an inhibition of 63%.
Turning to `COc1cc(CNCCCN2CCN(Cc3ccccc3)CC2)cc(OC)c1OC`, the figures for the IC50 against Acetylcholinesterase and at Cholinesterase were 81.8 nM and 41.5 nM, respectively. The Ratio IC50 in data set [3] stood at 0.5. For the same compound, in data set [1], the Activity came to 1.31 equiv. The compound further showed an inhibition in data set [2] of 79.7%. In data set [4], the Ratio stood at 1.71.
For the compound `COc1cc(CNCCCN2CCC(Cc3ccccc3)CC2)cc(OC)c1OC`, the IC50 on Acetylcholinesterase was 8.56 nM; against Cholinesterase, 23.1 nM. For the same compound, the Ratio IC50 in data set [3] is 2.69. The Activity in data set [1] is 1.41 equiv. Further, the inhibition in data set [2] was determined as 78.2%. In data set [4], the Ratio stood at 1.51.
With `c1ccc(CN2CCN(CCNCc3cccnc3)CC2)cc1`, the half-maximal inhibitory concentration (IC50) at Acetylcholinesterase came to 140 nM; against Cholinesterase it was 129 nM. The Ratio IC50 in data set [3] was determined as 0.92. Also, in data set [1], the Activity came out at 1.02 equiv. The compound further showed an inhibition in data set [2] of 56.8%.
On to `COc1cc(CNCCN2CCN(C(c3ccccc3)c3ccccc3)CC2)cc(OC)c1OC`, for which the Activity in data set [1] worked out at 2.38 equiv. The inhibition in data set [2] came to 68.7%.
Take `COc1cc(CNCCN2CCN(Cc3ccccc3)CC2)cc(OC)c1OC`: the figures for the IC50 against Acetylcholinesterase and against Cholinesterase were 96.5 nM and 75.1 nM, respectively. Also, the Ratio IC50 in data set [3] was determined as 0.77. Further, the Activity in data set [1] is 2.77 equiv. This compound also showed an inhibition in data set [2] of 75.5%.
`COc1cc(CNCCCCN2CCC(Cc3ccccc3)CC2)cc(OC)c1OC`: the values for the IC50 against Acetylcholinesterase and against Cholinesterase were 12.8 nM and 16.7 nM, respectively. Moreover, the Ratio IC50 in data set [3] came to 1.3. The Activity in data set [1] came out at 2.45 equiv. The inhibition in data set [2] came to 85.4%. In data set [4], the Ratio worked out at 1.51.
As for `COc1cc(CNCCCN2CCC(Cc3ccccc3)CC2)ccc1O`, the figures for the IC50 against Acetylcholinesterase and against Cholinesterase were 6.83 nM and 7.61 nM, respectively. For the same compound, the Ratio IC50 in data set [3] amounted to 1.11; in data set [5], 7. Besides, the Activity in data set [1] worked out at 3.74 equiv. The same compound yielded an inhibition in data set [2] of 88%. For the same compound, the Ratio in data set [4] amounted to 1.51.
Regarding `COc1ccc(CNCCN2CCC(Cc3ccccc3)CC2)cc1OC`, the IC50 was 182 nM against Acetylcholinesterase and 77.7 nM against Cholinesterase. The Ratio IC50 in data set [3] amounted to 0.42. Further, in data set [1], the Activity is given as 0.61 equiv. This compound also displayed an inhibition in data set [2] of 54.7%.
For `COc1ccc(CNCCCCN2CCN(Cc3ccccc3)CC2)cc1OC`, the IC50 on Acetylcholinesterase turned out to be 163 nM; at Cholinesterase, 142 nM. Moreover, the Ratio IC50 in data set [3] was 0.86. For the same compound, the Activity in data set [1] amounted to 0.61 equiv. In data set [2], this compound yielded an inhibition of 67.7%.
